Consider 14 compounds from US20250042886A1, “BIS(HETERO)ARYL THIOETHER OXADIAZINES AS FUNGICIDAL COMPOUNDS” (Bayer Aktiengesellschaft, priority 2021, published 2025).

Data set [1] can be described thus: Measurement of Log P values by HPLC on reversed phase columns (EEC directive 79/831 Annex V.A8). The data set is classed as physicochemical. Particulars: Table 1, compounds of formula (I); method [a]: LC-UV, acidic range, 0.1% formic acid in water and acetonitrile.
Data set [2] relates to Botrytis cinerea. The data set can be described thus: Botrytis cinerea in vitro cell test. It counts as cell-based. Particulars: 144 h, liquid culture, 6 days incubation, read-out: efficacy (inhibition of fungal growth); for inhibition at 20 ppm: 20 ppm of active ingredient; for inhibition at 50 µM: 50 μMol/l of active ingredient. The protocol: B-9. Botrytis cinerea In Vitro Cell Test • Solvent: DMSO • Culture medium: 1 g KH2PO4 (VWR), 1 g K2HPO4 (VWR), 0.5 g Urea (VWR), 3 g KNO3 (Prolabo), 10 g saccharose (VWR), 0.5 g MgSO4, 7H2O (Sigma), 0.07 g CaCl2, 2H2O (Prolabo), 0.2 mg MnSO4, H2O (Sigma), 0.6 mg CuSO4, 5H2O (Sigma), 7.9 mg ZnSO4, 7H2O (Sigma), 0.1 mg H3BO3 (Merck), 0.14 mg NaMoO4, 2H2O (Sigma), 2 mg thiamine (Sigma), 0.1 mg biotine (VWR), 4 mg FeSO4, 7H2O (Sigma), QSP 1 liter • Inoculum: spore suspension Fungicides were solubilized in DMSO and the solution used to prepare the required range of concentrations. […] A spore suspension of B. cinerea was prepared and diluted to the desired spore density. Fungicides were evaluated for their ability to inhibit spore germination and mycelium growth in liquid culture assay. The compounds were added in the desired concentration to the culture medium with spores. After 6 days incubation, fungi-toxicity of compounds was determined by spectrometric measurement of mycelium growth. Inhibition of fungal growth was determined by comparing the absorbance values in wells containing the fungicides with the absorbance in control wells without fungicides.

For a further data set, the system named is Alternaria alternata. The data set can be described thus: Alternaria alternata in vitro cell test. Particulars: 120 h, liquid culture, 5 days incubation, read-out: efficacy (inhibition of fungal growth). The data set is classed as cell-based. Here is the method:
(§1) B-5. Alternaria alternata In Vitro Cell Test • Solvent: DMSO • Culture medium: 14.6 g anhydrous D-glucose (VWR), 7.1 g Mycological Peptone (Oxoid), 1.4 g granulated Yeast Extract (Merck), QSP 1 liter • Inoculum: spores suspension Fungicides were solubilized in DMSO and the solution used to prepare the required range of concentrations. […] A spore suspension of A. alternata was prepared and diluted to the desired spore density. Fungicides were evaluated for their ability to inhibit spore germination and mycelium growth in liquid culture assay. The compounds were added in the desired concentration to the culture medium with spores. After 5 days incubation, fungi-toxicity of compounds was determined by spectrometric measurement of mycelium growth. Inhibition of fungal growth was determined by comparing the absorbance values in wells containing the fungicides with the absorbance in control wells without fungicides.

For a further data set, the system named is Alternaria brassicae. The data set can be described thus: In vivo preventive test on Alternaria brassicae (leaf spot on radish or cabbage). Particulars: 500 ppm of active ingredient, sprayed on young radish or cabbage plants 24 h before inoculation, evaluated 3 to 4 days after inoculation, read-out: efficacy. The protocol: B-1. […] The active ingredients were made soluble and homogenized in a mixture of Dimethyl sulfoxide/Acetone//Tween® 80 and then diluted in water to the desired concentration. The young plants of radish or cabbage were treated by spraying the active ingredient prepared as described above. Control plants were treated only with an aqueous solution of Acetone/Dimethyl sulfoxide/Tween® 80. After 24 hours, the plants were contaminated by spraying the leaves with an aqueous suspension of Alternaria brassicae spores.

For data set [3], the system named is Colletotrichum lindemuthianum. The data set can be described thus: Colletotrichum lindemuthianum in vitro cell test. Particulars: 144 h, liquid culture, 6 days incubation, read-out: efficacy (inhibition of fungal growth); for inhibition at 50 µM: 50 μMol/l of active ingredient; for inhibition at 20 ppm: 20 ppm of active ingredient. The data set is classed as cell-based. Here is the method: as §1, with “B-7. Colletotrichum lindemuthianum In” for “B-5. Alternaria alternata In”, “of C. lindemuthianum” for “of A. alternata”, “inhibit spores” for “inhibit spore”, “After 6” for “After 5”

The subject of data set [4] is Botrytis cinerea. The data set can be described thus: In vivo preventive test on Botrytis cinerea (grey mould). Particulars: 500 ppm of active ingredient, sprayed on young gherkin or cabbage plants 24 h before inoculation, evaluated 4 to 5 days after inoculation, read-out: efficacy. The protocol:
The active ingredients were made soluble and homogenized in a mixture of Dimethyl sulfoxide/Acetone//Tween® 80 and then diluted in water to the desired concentration. The young plants of gherkin or cabbage were treated by spraying the active ingredient prepared as described above. Control plants were treated only with an aqueous solution of Acetone/Dimethyl sulfoxide/Tween® 80. After 24 hours, the plants were contaminated by spraying the leaves with an aqueous suspension of Botrytis cinerea spores.

A further data set deals with Pyrenophora teres. The data set can be described thus: Pyrenophora teres in vitro cell test. The data set is classed as cell-based. Particulars: 144 h, liquid culture, 6 days incubation, read-out: efficacy (inhibition of fungal growth); for inhibition at 50 µM: 50 μMol/l of active ingredient. Here is the method:
as §1, with “B-8. Pyrenophora teres In” for “B-5. Alternaria alternata In”, “Inoculum: spore” for “Inoculum: spores”, “of P. teres” for “of A. alternata”, “After 6” for “After 5”

The subject of the next data set is Fusarium culmorum. The data set can be described thus: Fusarium culmorum in vitro cell test. Particulars: 120 h, 50 μMol/l of active ingredient, liquid culture, 5 days incubation, read-out: efficacy (inhibition of fungal growth). The data set is classed as cell-based. The protocol: B-10. Fusarium culmorum In Vitro Cell Test • Solvent: DMSO • Culture medium: 1 g KH2PO4 (VWR), 1 g K2HPO4 (VWR), 0.5 g Urea (VWR), 3 g KNO3 (Prolabo), 10 g saccharose (VWR), 0.5 g MgSO4, 7H2O (Sigma), 0.07 g CaCl2, 2H2O (Prolabo), 0.2 mg MnSO4, H2O (Sigma), 0.6 mg CuSO4, 5H2O (Sigma), 7.9 mg ZnSO4, 7H2O (Sigma), 0.1 mg H3BO3 (Merck), 0.14 mg NaMoO4, 2H2O (Sigma), 2 mg thiamine (Sigma), 0.1 mg biotine (VWR), 4 mg FeSO4, 7H2O (Sigma), QSP 1 liter • Inoculum: spores suspension
Fungicides were solubilized in DMSO and the solution used to prepare the required range of concentrations. The final concentration of DMSO used in the assay was ≤1%.
A spore suspension of F. culmorum was prepared and diluted to the desired spore density.
Fungicides were evaluated for their ability to inhibit spore germination and mycelium growth in liquid culture assay. The compounds were added in the desired concentration to the culture medium with spores. After 5 days incubation, fungi-toxicity of compounds was determined by spectrometric measurement of mycelium growth. Inhibition of fungal growth was determined by comparing the absorbance values in wells containing the fungicides with the absorbance in control wells without fungicides.

A further data set has as its system Pyricularia oryzae. The data set can be described thus: microbe, parasite or virus in culture. Particulars: 120 h; for inhibition at 50 µM: read-out: efficacy (inhibition of fungal growth), 50 μMol/l of active ingredient, liquid culture, 5 days incubation. It counts as cell-based.

In the case of `Cc1cccc(Sc2nnc(Cl)cc2C2=NOC[C@@H](Cc3ccc(Cl)cc3Cl)N2)c1` (racemic) [Compound I-014], in data set [1], the chromatographic logP (usually a lipophilicity value derived from retention on a column) worked out at 4.59. Besides, the inhibition at 20 ppm in the data set on Botrytis cinerea [2] was 90 to 100%; with Alternaria alternata (20 ppm of active ingredient), 70 to 79%.
Regarding `Cc1cc([C@H]2CON=C(c3c(Sc4ccc(F)c(Cl)c4)nnc(C)c3C)N2)c(C)s1` (racemic) [Compound I-088], the chromatographic logP in data set [1] amounted to 3.62. In addition, the inhibition at 50 µM (in the data set on Botrytis cinerea [2]; in data set [3]) was 90 to 100% throughout. The pest or weed control at 500 ppm with Alternaria brassicae was in the range of 70 to 79%; in the data set with Botrytis cinerea [4] it was 90 to 100%.
Take `Cc1cc([C@H]2CON=C(c3c(Sc4ccccn4)nnc(C)c3C)N2)c(C)s1` (racemic) [Compound I-036]: the chromatographic logP in [1] came to 2.32. The inhibition at 50 µM in the data set with Pyrenophora teres was in the range of 70 to 79%; in [3] it was 90 to 100%; in the data set on Fusarium culmorum, 90 to 100%.
For the compound `COc1ccc(Sc2nnc(C)c(C)c2C2=NOC[C@@H](c3cc(C)sc3C)N2)cc1` (racemic) [Compound I-049], in [1], the chromatographic logP was 3.11. Moreover, the inhibition at 50 µM in the data set with Pyrenophora teres and in the data set on Alternaria alternata (50 μMol/l of active ingredient) was 70 to 79% each time.
Compound `Cc1ccc([C@H]2CON=C(c3c(Sc4ccc(F)c(Cl)c4)nnc4ccccc34)N2)s1` (racemic) [Compound I-068] registered a chromatographic logP in data set [1] of 3.74. In addition, the inhibition at 50 µM in the data set with Botrytis cinerea [2] is 90 to 100%; in the data set with Pyrenophora teres, 70 to 79%; in data set [3] it was 90 to 100%. Besides, the pest or weed control at 500 ppm in the data set with Alternaria brassicae lay within 80 to 89%; in the data set on Botrytis cinerea [4], 90 to 100%.
The compound `Cc1ccc([C@H]2CON=C(c3c(Sc4ccc(F)c(F)c4)nnc(C)c3C)N2)s1` (racemic) [Compound I-085] had a chromatographic logP in [1] of 2.99. The values for the inhibition at 50 µM in the data set with Botrytis cinerea [2] and in the data set on Fusarium culmorum were 90 to 100% and 70 to 79%, respectively. The pest or weed control at 500 ppm with Botrytis cinerea [4] lay in the range of 90 to 100%.
As to `Cc1ccc([C@H]2CON=C(c3c(Sc4ccc(F)cc4)nnc4ccccc34)N2)s1` (racemic) [Compound I-060], the chromatographic logP in data set [1] was found to be 3.29. Besides, the results for the inhibition at 50 µM in the data set on Botrytis cinerea [2], in the data set on Pyrenophora teres and with Fusarium culmorum were 90 to 100%, 70 to 79% and 70 to 79%, respectively. The pest or weed control at 500 ppm in the data set with Alternaria brassicae lay within 70 to 79%; in the data set on Botrytis cinerea [4], 90 to 100%.
`Cc1ccc([C@H]2CON=C(c3c(Sc4ccc(C)c(C)c4)nnc4ccccc34)N2)s1` (racemic) [Compound I-080] showed a chromatographic logP in data set [1] of 3.76. The inhibition at 50 µM was in the range of 90 to 100% in the data set with Botrytis cinerea [2], 80 to 89% with Pyricularia oryzae and 90 to 100% in the data set with Fusarium culmorum. Moreover, the pest or weed control at 500 ppm in the data set with Botrytis cinerea [4] lay within 90 to 100%.
Consider `Cc1ccc([C@H]2CON=C(c3c(Sc4cccc(OC(F)(F)F)c4)nnc4ccccc34)N2)s1` (racemic) [Compound I-133], for which the chromatographic logP in [1] was 3.92. In addition, the inhibition at 50 µM was in the range of 90 to 100% in the data set on Botrytis cinerea [2], 70 to 79% in the data set on Pyricularia oryzae, 90 to 100% in [3] and 70 to 79% in the data set with Fusarium culmorum. Besides, the pest or weed control at 500 ppm in the data set on Botrytis cinerea [4] is 90 to 100%.
As for `Cc1cc([C@@H]2CON=C(c3c(Sc4ccccc4C)nnc(C)c3C)N2)c(C)s1` (racemic) [Compound I-121], the chromatographic logP in data set [1] was determined as 3.29. The inhibition at 50 µM in the data set with Botrytis cinerea [2] lay in the range of 90 to 100%. For the same compound, the pest or weed control at 500 ppm fell in the range of 80 to 89% in the data set on Alternaria brassicae and 90 to 100% with Botrytis cinerea [4].
`Cc1ccc([C@H]2CON=C(c3c(Sc4ccc(F)c(F)c4)nnc4ccccc34)N2)s1` (racemic) [Compound I-124] had a chromatographic logP in data set [1] of 3.44. In addition, the inhibition at 50 µM in the data set with Botrytis cinerea [2] was in the range of 90 to 100%; in the data set with Pyricularia oryzae, 70 to 79%; in [3], 70 to 79%; in the data set with Fusarium culmorum it was 80 to 89%. For the same compound, the pest or weed control at 500 ppm in the data set with Alternaria brassicae fell in the range of 80 to 89%; in the data set with Botrytis cinerea [4], 90 to 100%.
In the case of `Clc1cccc(Sc2nnc(Cl)cc2C2=NOC[C@@H](Cc3ccc(Cl)cc3Cl)N2)c1` (racemic) [Compound I-015], in data set [1], the chromatographic logP was 4.73. Besides, the inhibition at 20 ppm lay in the range of 90 to 100% with Botrytis cinerea [2]; 90 to 100% with Pyrenophora teres (20 ppm of active ingredient); 90 to 100% in the data set with Pyricularia oryzae (read-out: efficacy (inhibition of fungal growth), 20 ppm of active ingredient, liquid culture, 5 days incubation); 90 to 100% in [3]. Further, the pest or weed control at 500 ppm in the data set on Alternaria brassicae was 80 to 89%; in the data set with Botrytis cinerea [4] it was 90 to 100%.
`Cc1cccc(Sc2nnc(C)c(C)c2C2=NOC[C@H](c3cc(C)sc3C)N2)n1` (racemic) [Compound I-089] had a chromatographic logP in data set [1] of 2.56. In the data set with Botrytis cinerea [2], the inhibition at 50 µM was 70 to 79%. Moreover, the results for the pest or weed control at 500 ppm with Alternaria brassicae and with Botrytis cinerea [4] were 70 to 79% and 80 to 89%, respectively.
In data set [1], `COc1cccc(Sc2nnc3ccccc3c2C2=NOC[C@@H](Cc3ccc(C)cc3C)N2)c1` (racemic) [Compound I-006] yielded a chromatographic logP of 3.84. In addition, the inhibition at 20 ppm (in the data set on Botrytis cinerea [2]; in data set [3]) was 90 to 100% in each case. Moreover, the pest or weed control at 500 ppm in the data set on Alternaria brassicae and in the data set with Botrytis cinerea [4] was 90 to 100% throughout.
